Structures can show the parent of a compound that is named as a salt.
Legend:
acetic acid writhing = assay: Analgesic activity, acetic acid writhing test (Koster et al); format: in vivo, Male ddY strain mice; conditions: p.o.
Text: Experiment 3: Analgesic activity
Male ddY strain mice in groups of ten each were used for evaluation of analgesic activity by the acetic acid writhing test (Koster et al, Federation Proc., 18, 412 (1959). The results are shown in Tables 3 and 4.

rat paw edema = assay: Anti-inflammatory activity, carrageenin rat paw edema (Winter et al); format: in vivo, Male Wistar strain rats; conditions: p.o., four hours after injection of carrageenin
Description: Experiment 1: Anti-inflammatory activity
Anti-inflammatory activity was evaluated by the method of rat paw edema (Winter et al, J. Pharmacol. Exp. Ther., 141, 369 (1963) ). Six male Wistar strain rats were used in each group and the volume of each paw was measured four hours after injection of carrageenin.

[1] = Analgesic activity, method of Randall-Selitto with slight modification; format: in vivo, Male Wistar strain rats; conditions: 25 mg/kg orally, vs Cpd. 3 at 100 mg/kg
Description: Experiment 2: Analgesic activity
Male Wistar strain rats in groups of six each were used for the evaluation of analgesic activity by the method of Randall-Selitto (Arch. Intern. Pharmacodyn., 111, 409 (1957) ) with slight modification. In a graph where the load was plotted on the ordinate and the time was plotted on the abscissa, the curve obtained when Cpd. 1 was orally administered in a dose of 25 mg/kg was substantially in agreement with the curve obtained when Cpd. 3 was orally administered in a dose of 100 mg/kg. […] 1 was administered in a dose of 50 mg/kg and the Cpd 3 was administered in a dose of 200 mg/kg.

gastric lesions = assay: Gastric ulcerogenicity (gastric lesions); format: in vivo, Male Wistar strain rats; conditions: p.o., 18 hours fasting prior to autopsy
Text: Experiment 4: Gastric ulcerogenicity […] The gastric lesions induced was expressed as incidence (number of rats with gastric lesions/number of the test rats) and lesion index (sum of areas damaged).

[2] = Table 6, 100 + 200 mg/kg, 200 mg/kg

**Q.** Which “Inhibition (%)” value (acetic acid writhing; Table 3, 100 mg/kg) does the source give for `CC(C(=O)O)c1ccc(Nc2cccccc2=O)cc1` (centres unmarked) [Cpd. 1, 2-[p-(2-troponylamino)phenyl]propionic acid] here?
**A.** 54.8%

**Q.** And the “Inhibition (%)” value (rat paw edema; Table 1, 25 mg/kg)?
**A.** 56.8%

**Q.** What about the “Inhibition (%)” value (rat paw edema; Table 1, 50 mg/kg) of the same compound?
**A.** 50.9%

**Q.** What about the “Inhibition (%)” value (rat paw edema; Table 1, 100 mg/kg) of the same compound?
**A.** 61.0%

**Q.** And the “Load-time curve compared with Cpd. 3” value [1]?
**A.** substantially in agreement with the curve obtained when Cpd. 3 was orally administered in a dose of 100 mg/kg

**Q.** What about the “Incidence (number of rats with gastric lesions/number of the test rats)” value (gastric lesions; Table 5, 25 + 50 mg/kg) of the same compound?
**A.** 0/6

**Q.** What about the “Lesion index (sum of areas damaged)” value (gastric lesions; Table 5, 25 + 50 mg/kg) of the same compound?
**A.** 0 mm^2

**Q.** And the “Incidence (number of rats with gastric lesions/number of the test rats)” value (gastric lesions; Table 5, 50 + 100 mg/kg)?
**A.** 1/6

**Q.** What about the “Lesion index (sum of areas damaged)” value (gastric lesions; Table 5, 50 + 100 mg/kg) of the same compound?
**A.** 0.02 ± 0.017 mm^2

**Q.** And the “Incidence (number of rats with gastric lesions/number of the test rats)” value (gastric lesions; Table 5, 100 + 200 mg/kg)?
**A.** 4/6

**Q.** What about the “Lesion index (sum of areas damaged)” value (gastric lesions; Table 5, 100 + 200 mg/kg) of the same compound?
**A.** 0.52 ± 0.17 mm^2

**Q.** For `CC(C(=O)O)c1cccc(Nc2cccccc2=O)c1` (centres unmarked) [Cpd. 2, 2-[m-(2-troponylamino)phenyl]propionic acid], which “Inhibition (%)” value (acetic acid writhing; Table 4, 100 mg/kg) is on record?
**A.** 31.2%

**Q.** What about the “Inhibition (%)” value (rat paw edema; Table 2, 100 mg/kg, 100 mg/kg) of the same compound?
**A.** 43.0%

**Q.** What about the “Incidence (number of rats with gastric lesions/number of the test rats)” value (gastric lesions; [2]) of the same compound?
**A.** 0/6

**Q.** And the “Lesion index (sum of areas damaged)” value (gastric lesions; [2])?
**A.** 0 mm^2

**Q.** With `CC(C(=O)O)c1cccc(Nc2cccccc2=O)c1` (centres unmarked) [Cpd. 2-Ca salt, calcium 2-[m-(2-troponylamino)phenyl]propionate] as the compound, how does the “Inhibition (%)” value (acetic acid writhing; Table 4, 100 mg/kg) read?
**A.** 31.2%

**Q.** And the “Inhibition (%)” value (rat paw edema; Table 2, 100 mg/kg, 100 mg/kg)?
**A.** 43.2%

**Q.** And the “Incidence (number of rats with gastric lesions/number of the test rats)” value (gastric lesions; [2])?
**A.** 2/6

**Q.** And the “Lesion index (sum of areas damaged)” value (gastric lesions; [2])?
**A.** 0.12 ± 0.10 mm^2

**Q.** With `CCCCC1C(=O)N(c2ccccc2)N(c2ccccc2)C1=O` [Cpd. 3, phenylbutazone, reference compound] as the compound, how does the “Inhibition (%)” value (acetic acid writhing; Table 3, 200 mg/kg) read?
**A.** 18.5%

**Q.** What about the “Inhibition (%)” value (acetic acid writhing; Table 4, 100 mg/kg) of the same compound?
**A.** 10.7%

**Q.** And the “Inhibition (%)” value (rat paw edema; Table 1, 25 mg/kg)?
**A.** 22.4%

**Q.** What about the “Inhibition (%)” value (rat paw edema; Table 1, 50 mg/kg) of the same compound?
**A.** 34.7%

**Q.** What about the “Inhibition (%)” value (rat paw edema; Table 1, 100 mg/kg) of the same compound?
**A.** 54.5%

**Q.** What about the “Inhibition (%)” value (rat paw edema; Table 2, 100 mg/kg) of the same compound?
**A.** 32.5%

**Q.** What about the “Lesion index (sum of areas damaged)” value (gastric lesions; Table 5, 25 + 50 mg/kg) of the same compound?
**A.** 0.02 ± 0.014 mm^2

**Q.** What about the “Lesion index (sum of areas damaged)” value (gastric lesions; Table 5, 50 + 100 mg/kg) of the same compound?
**A.** 1.43 ± 0.43 mm^2

**Q.** What about the “Lesion index (sum of areas damaged)” value (gastric lesions; Table 5, 100 + 200 mg/kg) of the same compound?
**A.** 6.82 ± 1.40 mm^2

**Q.** And the “Lesion index (sum of areas damaged)” value (gastric lesions; Table 6, 100 + 200 mg/kg)?
**A.** 7.70 ±3.23 mm^2

From patent US4189607A, “Anilionotropone derivatives” (priority 1979, dated 1980)
